In patent publication US20200048208A1, “TREATMENT OF DISEASES OR DISORDERS CAUSED BY INDUCED NFkB TRANSCRIPTIONAL ACTIVITY” (Senex Biotechnology, Inc., priority 2011, published 2020):
Entries after “also recorded” stand apart in the source; their conditions may differ. Non-standard residues stand in square brackets, D forms with d. Residues, ends and D or L forms follow the SMILES beside them. *: point of attachment. Nva = CCC[C@H](N)C(=O)O; Cbz = O=C(OCc1ccccc1)*

Tests used:
[1] = clinical experience (Cavaletti and Jakubowiak, 2010); cited from earlier work
[2] = test system: p50; test: TransAM NFκB DNA-binding ELISA of nuclear extracts, p50; format: cell-based, human; conditions: HT1080 and HEK293 cells, untreated and TNFα-treated; 5 μM Senexin A, 60 μM TPCK, 10 μM MG115 for 3 hours
Source text: (§1) Given the role of NFxB in the induction of transcription by p21 (Poole et al., 2004), we have tested SNX2 for the ability to decrease the amount of active NFκB in the nucleus, a general assay for different known classes of NFκB inhibitors. As shown in FIG. 8 of US patent publication 20080033000, we have found, using ACTIVE MOTIF TransAM™ NFκB p65 Chemi and NFκB p50 Chemi Transcription Factor Assay Kits, that SNX2 had no effect on the amount of p50 or p65 NFκB subunits binding to NFκB consensus sequence in nuclear extracts from HT 1080 cells, untreated or treated with NFκB inducer TNFα.
(§2) The DNA-binding activities of nuclear NFκB proteins were measured by the ELISA-based TransAM NFκB Family Transcriptional Factor Assay Kit (Active Motif) following manufacturer's protocol. HT1080 and HEK293 cells were pretreated with inhibitors (5 μM Senexin A, 60 μM TPCK, 10 μM MG115) for 3 hours and then treated with 10 ng/ml TNF for 30 minutes before nuclear extract preparation with Nuclear Extraction Kit (Active Motif). Nuclear extracts were assayed at 5 μg/well for p65 and 2.5 μg/well for p50 DNA binding.

[3] = test system: HT1080-derived NFkB-GFP reporter cell line; test: Propidium iodide flow cytometry for dead cells; format: cell-based, human; conditions: inhibitor 3 hours then 18 hours TNFα (10 ng/ml)
Protocol: (§3) We have compared Senexin A to two known proteasome-targeting NFκB inhibitors, N-tosyl-L-phenylalanine chloromethyl ketone (TPCK) (Ha et al., 2009) and MG115 in regard to their cytotoxicity and their effect on the nuclear translocation of active NFκB. In the experiment shown in FIG. 7, the HT1080-derived NFkB-GFP reporter cell line was seeded in 60 mm plates at 1.5×10^5 cells per plate and cultured overnight before being treated with different NFκB inhibitors at the concentrations indicated in FIG. 7 for 3 hours, followed by 18 hours TNFα (10 ng/ml) stimulation. The treated cells were trypsinized, resuspended in PBS, mixed with 5 μg/ml propidium iodide (PI), and analyzed using LSRII flow cytometer (BD Biosciences) for GFP fluorescence (left panel) and the percentage of dead (PI-positive) cells (right panel).

[4] = test system: p65; test: TransAM NFκB DNA-binding ELISA of nuclear extracts, p65; format: cell-based, human; conditions: HT1080 and HEK293 cells, untreated and TNFα-treated; 5 μM Senexin A, 60 μM TPCK, 10 μM MG115 for 3 hours
Source text: as §1, §2

[5] = test system: TNFα-induced NFκB-dependent transcription; test: NFkB-GFP reporter flow cytometry after inhibitor and TNFα (GFP fluorescence); format: cell-based, human; conditions: HT1080-derived reporter, inhibitor 3 hours then 18 hours TNFα (10 ng/ml)
Protocol: as §3

[6] = test system: NFκB-dependent promoter; test: NFκB-GFP reporter assay, TNFα induction (96-well fluorometric); format: cell-based, human; conditions: HT1080-based NFκB-GFP reporter cells
Protocol: (§4) We have tested the effects of SNX2-class compounds on NFκB transcriptional activity. These assays were conducted with a reporter cell line that we derived from HT1080 p21-9 cells carrying IPTG-inducible p21 (Chang et al., 1999) after transduction with Cignal Lenti NFκB Reporter lentivirus (SA Biosciences), which expresses GFP from a NFκB-dependent minimal promoter. The reporter cell line was then selected for a high basal level of NFκB-dependent GFP expression, which was further increased by TNFα or upon p21 induction by IPTG.
The ability of SNX2-class compounds to prevent the induction of the NFκB-dependent promoter by p21 was not surprising, since these compounds were identified by their ability to prevent p21-mediated induction of another promoter (CMV) (Chang et al., 2008), and NFκB stimulation by p21 was already known.

[7] = test system: NFκB-inducible genes; test: QPCR of NFκB-inducible genes in TNFα-treated wild-type HCT116 cells; format: cell-based, human; conditions: wild-type HCT116, 5 μM pretreatment 1 hour, 10 ng/ml TNFα 30 minutes
Protocol: (§5) We have verified the effect of CDK8/19 inhibition on NFκB-mediated induction of transcription in human HCT116 colon carcinoma cells, where we also used the availability of a p21−/− derivative of this cell line (Waldman et al., 1996) to determine if this effect depends on p21. The wild-type and p21−/− HCT116 cells were seeded in 6-well plates at 6×10^5 cells/well in media with 10% serum and cultured overnight. The next day, cells were pretreated with 5 μM Senexin A or with DMSO vehicle control for 1 hour and treated with or without 10 ng/ml TNFα for 30 minutes. Cells were then lysed for RNA purification and QPCR analysis of NFκB-inducible genes.

[8] = test system: NFκB-inducible genes; test: QPCR of NFκB-inducible genes in TNFα-treated p21−/− HCT116 cells; format: cell-based, human; conditions: p21−/− HCT116, 5 μM pretreatment 1 hour, 10 ng/ml TNFα 30 minutes
Protocol: as §5

[9] = test system: NFκB-inducible genes; test: QPCR of NFκB-inducible genes in TNFα-treated HEK293 cells; format: cell-based, human; conditions: HEK293, 5 μM pretreatment 1 hour, 10 ng/ml TNFα 30 minutes
Protocol: The cells were seeded in 6-well plates at 6×10^5 cells/well in media containing 3% serum and cultured overnight. The next day, cells were pretreated with 5 μM Senexin A or with DMSO vehicle control for 1 hour and treated with or without 10 ng/ml TNFα for 30 minutes. Cells were then lysed for total RNA purification with the RNeasy Kit (Qiagen). For QPCR analysis of NFκB-inducible genes, cDNA was prepared using Maxima First Strand cDNA Synthesis Kit (Thermo Scientific/Fermentas, K1641) and gene expression was measured by QPCR with gene-specific primers, with RPL13A as a normalization standard, using Maxima SYBR Green/ROX qPCR Master Mix (Thermo Scientific/Fermentas, K0223) and ABI Prism 7900HT Detection system (Life technologies).

[10] = test system: NFκB-dependent promoter; test: NFκB-GFP reporter assay, induction by IPTG-inducible p21 (flow cytometric); format: cell-based, human; conditions: HT1080 p21-9 derived NFκB-GFP reporter cells, 50 mM IPTG for 72 hrs, different concentrations
Protocol: as §4

[11] = test system: induction of transcription by p21; conditions: at concentrations that inhibit NFκB (Poole et al., 2004); cited from earlier work
[12] = bone loss therapy (Hiligsmann and Reginster, 2010); cited from earlier work

CC(C)C[C@H](NC(=O)[C@H](Cc1ccccc1)NC(=O)c1cnccn1)B(O)O [Bortezomib]
Bortezomib-induced peripheral neuropathy [1]: 37-44 % of patients

CCC[C@@H](C=O)NC(=O)[C@H](CC(C)C)NC(=O)[C@H](CC(C)C)NC(=O)OCc1ccccc1 [MG115, reference compound] (Cbz-Leu-Leu-[Nva]-aldehyde)
amount of active p50 (DNA binding) in nuclear extracts [2]: strongly decreased | fraction of dead (PI-positive) cells [3]: strongly increased the fraction of dead cells | amount of active p65 (DNA binding) in nuclear extracts [4]: strongly decreased | TNFα-induced NFκB-dependent transcription (GFP fluorescence) [5]: inhibited TNFα-induced NFκB-dependent transcription

N#Cc1ccc2ncnc(NCCc3ccccc3)c2c1 [SNX2-1-53]
amount of active p50 (DNA binding) in nuclear extracts [2]: does not block; also recorded: indistinguishable from the control | fraction of dead (PI-positive) cells ([3]; listed as Senexin A): minimal effects on cell viability; also recorded: did not | TNFα-induced NFκB activity (GFP expression normalized by Hoechst 33342) ([6]; 10 ng/ml TNFα for 18 hrs): inhibited TNFα-induced NFκB activity | basal NFκB activity (normalized GFP expression) ([6]; untreated (no TNFα)): did not significantly inhibit | TNFα-induced gene expression [7]: inhibited TNFα-induced gene expression to the same degree | TNFα-induced gene expression [8]: inhibited TNFα-induced gene expression to the same degree | amount of active p65 (DNA binding) in nuclear extracts [4]: does not block; also recorded: indistinguishable from the control | induction of NFκB-regulated genes by TNFα [9]: drastically inhibited | induction of the NFκB-dependent promoter by p21 (GFP expression) [10]: strongly inhibited | induction of the NFκB-dependent promoter by p21 (GFP expression) ([10]; listed as Senexin A): dose dependent inhibition | TNFα-induced NFκB-dependent transcription (GFP fluorescence) ([5]; listed as Senexin A): inhibits NFκB activation; also recorded: inhibited TNFα-induced NFκB-dependent transcription

CC1=C(CC(=O)O)c2cc(F)ccc2/C1=C\c1ccc([S+](C)[O-])cc1 (stereo not shown) [Sulindac]
induction of transcription by p21 [11]: inhibited

N-tosyl-L-phenylalanine chloromethyl ketone [TPCK, reference compound]
amount of active p50 (DNA binding) in nuclear extracts [2]: strongly decreased | fraction of dead (PI-positive) cells [3]: strongly increased the fraction of dead cells | amount of active p65 (DNA binding) in nuclear extracts [4]: strongly decreased | TNFα-induced NFκB-dependent transcription (GFP fluorescence) [5]: inhibited TNFα-induced NFκB-dependent transcription

denosumab
safety profile [12]: good safety profile
